From patent US8933228B2, “Respiratory formulations and compounds for use therein” (Respivert, Ltd., priority 2010, dated 2015)
Like-named read-outs stand apart in the source and are kept apart here.

Tests used:
[1] = system: IL-8 release in d-U937 cells; assay: LPS-induced IL-8 release in d-U937 cells; assay type: cell-based; details: Homo sapiens, read-out: d-U937 (LPS) IL-8 IC50
Method: (§1) U937 cells, a human monocytic cell line, were differentiated to macrophage-type cells by incubation with phorbol myristate acetate (PMA; 100 ng/mL) for 48 to 72 hr, whereupon the cells become adherent. […] Coli: O111:B4, Sigma) for 4 hr. The supernatant was collected for determination of TNFα and IL-8 concentrations by sandwich ELISA (Duo-set, R&D systems). […] The relative 50% effective concentration (REC50) was determined from the resultant concentration-response curve. The inhibition of IL-8 production was calculated at each concentration of test compound by comparison with vehicle control.

HRV16 = assay: Rhinovirus-titre assay; assay type: cell-based, human rhinovirus; details: Human rhinovirus sp.; for inhibition at 0.04 µg/mL: cell not marked b, test compounds 0.04 μg/mL per method (footnote b, 0.2 μg/mL)
Method: MRC5 cells (human lung fibroblast, ATCC) were infected with 1 MOI (multiplicity of infection of 1.0) of HRV16 and incubated for 1 hr at 33° C. with gentle shaking to stimulate adsorption. The cells were then washed with PBS, fresh media was added and the cells were incubated for a further 96 hr. The supernatant was collected and 10-fold serial dilutions of virus containing supernatant were prepared. All titrations were performed by infecting confluent Hela cell monolayers with serially diluted supernatant (10^−1-10^−5) and assessing the cytopathic effect by visual inspection 4 days after infection. The amount of virus required to infect 50% of Hela cells was calculated in each treatment as TCID50. Test compounds (0.04 μg/mL) were added 2 hr before HRV infection and 1 hr after infection when non-infected HRV was washed out. The anti-HRV activity of each test compound was determined as the difference of the log TCID50 of HRV16 in the presence of the compound with the log TCID50 of HRV16 in the absence of compound. […]

[2] = system: TNFα release in d-U937 cells; assay: LPS-induced TNFα release in d-U937 cells; assay type: cell-based; details: Homo sapiens, dU937, LPS 0.1 μg/mL, 4 hr, relative to 10 μg/mL BIRB796, read-out: d-U937 (LPS) TNFα REC50
Method: as §1

[3] = system: Differentiated U937 cells; assay: MTT assay: cell viability; assay type: cell-based, human; details: for d-U937 MTT Assay 4 h: 5% FCS; for d-U937 MTT Assay 24 h: 10% FCS
Method: Differentiated U937 cells were pre-incubated with each test compound under two protocols: the first for 4 hr in 5% FCS and the second in 10% FCS for 24 h. The supernatant was replaced with 200 μL of new media and 10 μL of MTT stock solution (5 mg/mL) was added to each well. After incubation for 1 hr the media were removed, 200 μL of DMSO was added to each well and the plates were shaken lightly for 1 hr prior to reading the absorbance at 550 nm. The percentage loss of cell viability was calculated for each well relative to vehicle (0.5% DMSO) treatment. Consequently an apparent increase in cell viability for drug treatment relative to vehicle is tabulated as a negative percentage.

[4] = system: ICAM-1 expression in BEAS2B cells; assay: Poly I:C-induced ICAM-1 induction in BEAS2B cells; assay type: cell-based; details: Homo sapiens, BEAS-2B, read-out: BEAS2B (polyIC) ICAM1 IC50
Method: Poly I:C (1 μg/mL) (Invivogene Ltd., San Diego, Calif.) was transfected into BEAS2B cells (human bronchial epithelial cells, ATCC) with Oligofectamine (Invitrogen, Carlsbad, Calif.). Cells were pre-incubated with final concentrations of test compounds for 2 hr and the level of ICAM1 expression on the cell surface was determined by cell-based ELISA. […] The cells were washed with PBS-Tween and incubated with the secondary antibody (HRP-conjugated anti-rabbit IgG, Dako Ltd., Glostrup, Denmark).

[5] = system: TNFα release in THP-1 cells; assay: LPS-induced TNFα release in THP-1 cells; assay type: cell-based; details: Homo sapiens, read-out: THP1 (LPS) TNFα IC50
Method: The inhibition of TNFα production was calculated at each concentration by comparison with vehicle control.

p38 MAPK γ (MAPK12) = p38 MAPK γ (MAPK12) (Homo sapiens (Human), UniProt P53778); assay: Enzyme inhibition assay (FRET, Z-LYTE), p38 MAPK gamma; assay type: biochemical; details: read-out: Enzyme Profile: IC50 Values p38γ
Method: (§2) The enzyme inhibitory activity of test compounds was determined by fluorescence resonance energy transfer (FRET) using synthetic peptides labelled with both donor and acceptor fluorophores (Z-LYTE, Invitrogen). Recombinant, phosphorylated p38 MAPK γ (MAPK12:Millipore) was diluted in HEPES buffer, mixed with compound at the desired final concentrations and incubated for 2 hr at RT. The FRET peptide (2 μM) and ATP (100 μM) were next added to the enzyme/compound mixture and incubated for 1 hr. Development reagent (protease) was added for 1 hr prior to detection in a fluorescence microplate reader. The site-specific protease only cleaves non-phosphorylated peptide and eliminates the FRET signal. Phosphorylation levels of each reaction were calculated using the ratio of coumarin emission (donor) over fluorescein emission (acceptor) with high ratios indicating high phosphorylation levels and low ratios indicating low phosphorylation levels.

cSrc enzyme = cSrc enzyme (Homo sapiens (Human), UniProt P12931); assay: c-SRC enzyme inhibition assay (FRET, Z'-LYTE); assay type: biochemical; details: read-out: Enzyme Profile: IC50 Values cSrc
p38 MAPK alpha (MAPK14) = p38 MAPK alpha (MAPK14) (Homo sapiens (Human), UniProt Q16539); assay: Enzyme inhibition assay (FRET, Z-LYTE), p38 MAPK alpha via MAPKAP-K2 activation; assay type: biochemical; details: read-out: Enzyme Profile: IC50 Values p38α
Method: as §2
For p38 MAPK alpha (MAPK14: Invitrogen), enzyme activity was evaluated indirectly by determining activation/phosphorylation of the down-stream molecule, MAPKAP-K2. The p38 MAPK a protein was mixed with compound for 2 hr at RT. […] Development reagent was then added and the mixture incubated for 1 hr before detection by fluorescence completed the assay protocol.
The enzyme inhibitory activity of compound was determined by fluorescence resonance energy transfer (FRET) using synthetic peptides labelled with both donor and acceptor fluorophores (Z′-LYTE, Invitrogen).

HCK enzyme = HCK enzyme (Homo sapiens (Human), UniProt P08631); assay: HCK enzyme inhibition assay (FRET, Z'-LYTE); assay type: biochemical; details: read-out: Enzyme Profile: IC50 Values HCK
[6] = dU937, d-U937 cells, LPS 0.1 μg/mL, 4 hr
[7] = HRV16, cell marked b: performed at 0.2 μg/mL, read-out: HRV titre (inhibitory %): % inhibition observed vs. HRV16 infection control
[8] = BEAS2B cells, poly I:C 1 μg/mL, 18 hr
[9] = HRV16, read-out: HRV titre (inhibitory %): % inhibition observed vs. HRV16 infection control

IC50 [1, 6]	EC50 [2]	IC50 ([5]; THP-1 cells, LPS 3 μg/mL, 4 hr)	IC50 (p38 MAPK γ (MAPK12))	IC50 (cSrc enzyme)	IC50 (p38 MAPK alpha (MAPK14))	IC50 (HCK enzyme)	Compound	inhibition at 0.2 µg/mL (HRV16; [7])	d-U937 MTT Assay 4 h ([3]; performed at 10 μg/mL)	d-U937 MTT Assay 24 h ([3]; performed at 10 μg/mL)	IC50 [4, 8]	inhibition at 0.04 µg/mL (HRV16; [9])	d-U937 MTT Assay 4 h ([3]; 1 μg/ml)	d-U937 MTT Assay 24 h ([3]; 1 μg/ml)	IC50 ([1]; dU937, 4 h)	inhibition at 0.2 µg/mL (HRV16; [9])	IC50 ([4]; 18 h)	IC50 ([5]; THP-1, 4 h)
> 1890 nM	4.8 nM	4.1 nM					Cc1ccc(-n2nc(C(C)(C)C)cc2NC(=O)Nc2ccc(OCCN3CCOCC3)c3ccccc23)cc1 [BIRB 796, 1-(3-tert-butyl-1-p-tolyl-1H-pyrazol-5-yl)-3-(4-(2-morpholinoethoxy)naphthalen-1-yl)urea, reference compound]	28%	− ^d (− and + indicate the result is below and above the no significant effect threshold, respectively (<30% inhibition at a concentration of 1 μg/ml))	− ^d (− and + indicate the result is below and above the no significant effect threshold, respectively (<30% inhibition at a concentration of 1 μg/ml))	3530 nM							
5.2 nM	1.1 nM	0.7 nM	72 nM	9 nM			Cc1ccc(-n2nc(C(C)(C)C)cc2NC(=O)Nc2ccc(Oc3ccnc4[nH]c(=O)cnc34)c3ccccc23)cc1 [Example 6]				11 nM	80%	− (− and + indicate the result is below and above the no significant effect threshold, respectively (<30% inhibition at a concentration of 1 μg/ml))	− (− and + indicate the result is below and above the no significant effect threshold, respectively (<30% inhibition at a concentration of 1 μg/ml))				
3.3 nM	7.1 nM	11 nM					Cc1ccc(-n2nc(C(C)(C)C)cc2NC(=O)Nc2ccc(Oc3ccnc4[nH]c(=O)cnc34)c3ccccc23)s1 [Example 21]					80%	− (− and + indicate the result is below and above the no significant effect threshold, respectively (<30% inhibition at a concentration of 1 μg/ml))	− (− and + indicate the result is below and above the no significant effect threshold, respectively (<30% inhibition at a concentration of 1 μg/ml))				
90 nM	30 nM		193 nM	35 nM	12 nM	22 nM	COc1ccc(-n2nc(C(C)(C)C)cc2NC(=O)Nc2ccc(OCc3ccnc4[nH]c(=O)cnc34)c3ccccc23)cc1 [Example 23]				23 nM		− (− and + indicate the result is below and above the no significant effect threshold, respectively (<30% inhibition at a concentration of 1 μg/ml))	− (− and + indicate the result is below and above the no significant effect threshold, respectively (<30% inhibition at a concentration of 1 μg/ml))				
4.3 nM	1.1 nM	34 nM					Cc1ccc(-n2nc(C(C)C)cc2NC(=O)Nc2ccc(Oc3ccnc4[nH]c(=O)cnc34)c3ccccc23)cc1 [Example 30, 1-(3-isopropyl-1-(p-tolyl)-1H-pyrazol-5-yl)-3-(4-((3-oxo-3,4-dihydropyrido[2,3-b]pyrazin-8-yl)oxy)naphthalen-1-yl)urea]				27 nM	36%	− (− and + indicate the result is below and above the no significant effect threshold, respectively (<30% inhibition at a concentration of 1 μg/ml))	− (− and + indicate the result is below and above the no significant effect threshold, respectively (<30% inhibition at a concentration of 1 μg/ml))				
7 nM	5.5 nM	8.8 nM					CC(C)(C)c1cc(NC(=O)Nc2ccc(Oc3ccnc4[nH]c(=O)cnc34)c3ccccc23)n(-c2ccc(Cl)c(Cl)c2)n1 [Example 32, 1-(3-(tert-butyl)-1-(3,4-dichlorophenyl)-1H-pyrazol-5-yl)-3-(4-((3-oxo-3,4-dihydropyrido[2,3-b]pyrazin-8-yl)oxy)naphthalen-1-yl)urea]				10 nM	80%	− (− and + indicate the result is below and above the no significant effect threshold, respectively (<30% inhibition at a concentration of 1 μg/ml))	− (− and + indicate the result is below and above the no significant effect threshold, respectively (<30% inhibition at a concentration of 1 μg/ml))				
	0.13 nM						COCC(=O)Nc1cc(Oc2ccc(NC(=O)Nc3cc(C(C)(C)C)nn3-c3ccc(C)cc3)c3ccccc23)ccn1 [Ref 2, N-(4-(4-(3-(3-tert-butyl-1-p-tolyl-1H-pyrazol-5-yl)ureido)naphthalen-1-yloxy)pyridin-2-yl)-2-methoxy acetamide, reference compound]	100%					− (− and + indicate the result is below and above the no significant effect threshold, respectively (<30% inhibition at a concentration of 1 μg/ml))	− (− and + indicate the result is below and above the no significant effect threshold, respectively (<30% inhibition at a concentration of 1 μg/ml))				

Compound	IC50 [1, 6]	EC50 [2]	IC50 ([5]; THP-1 cells, LPS 3 μg/mL, 4 hr)	IC50 (p38 MAPK γ (MAPK12))	IC50 (cSrc enzyme)	IC50 (p38 MAPK alpha (MAPK14))	IC50 (HCK enzyme)	inhibition at 0.2 µg/mL (HRV16; [7])	d-U937 MTT Assay 4 h ([3]; performed at 10 μg/mL)	d-U937 MTT Assay 24 h ([3]; performed at 10 μg/mL)	IC50 [4, 8]	inhibition at 0.04 µg/mL (HRV16; [9])	d-U937 MTT Assay 4 h ([3]; 1 μg/ml)	d-U937 MTT Assay 24 h ([3]; 1 μg/ml)	IC50 ([1]; dU937, 4 h)	inhibition at 0.2 µg/mL (HRV16; [9])	IC50 ([4]; 18 h)	IC50 ([5]; THP-1, 4 h)
COCC(=O)Nc1cc(COc2ccc(NC(=O)Nc3cc(C(C)(C)C)nn3-c3ccc(C)cc3)c3ccccc23)ccn1 [Ref. 1, N-(4-((4-(3-(3-tert-butyl-1-p-tolyl-1H-pyrazol-5-yl)ureido)naphthalen-1-yloxy)methyl)pyridin-2-yl)-2-methoxyacetamide, reference compound]		0.9 nM							− ^d (− and + indicate the result is below and above the no significant effect threshold, respectively (<30% inhibition at a concentration of 1 μg/ml))	− ^d (− and + indicate the result is below and above the no significant effect threshold, respectively (<30% inhibition at a concentration of 1 μg/ml))					92 nM	96%	618 nM	2.3 nM
